# Data as given in patent EP2674155B1, “Association of resveratrol and carboxymethylglucan” (priority 2012, dated 2013).
# Key:
# [1] = Stability over time of resveratrol in aqueous solution (25°C, closed, protected from light), HPLC; assay type: physicochemical; details: resveratrol alone 0.03 mg/ml
# Method: (§1) The chromatographic method devised for determining resveratrol provides the use of a HPLC Waters system constituted by a pump, 600 model, by a Waters self-sampler mod. 717 and by a UV-Visible Photodiode array detector mod 2996. The system is handled by the Millenium^32 software. The used chromatographic column is a Symmetry C-18 with length of 15 cm, associated to a specific pre-column of same material with length of 1 cm. The elution is performed under isocratic conditions by using the following mixtures: • 1) 30% [Acetic acid 0.1 % in methanol] e 70% [Acetic acid 0.1 % in water] • 2) 80% [Acetic acid 10% in water] and 20% [Acetonitrile]. For the measurements 50 µL of sample are taken, diluted in 500µL of mobile phase and an aliquot of 50µL is injected in HPLC.
# The examined concentration of the solution of resveratrol was 0.03 mg/ml, corresponding to the maximum quantity which can be solubilized in water of the original product. […] The two solutions were kept under the same conditions described above for the solution of resveratrol only and they were evaluated in different moments as from the time of the preparation thereof. […]
# VERO cellular line = test: Cellular metabolic activity, MTT assay; assay type: cell-based; details: VERO cells, resveratrol 0.5 mg/ml (2.2 mM), 6 hours after exposition, versus not treated cells (CTRL)
# Method: The cellular metabolic activity is evaluated on VERO cellular line, by means of MTT cellular proliferation assay (3-(4,5-dimethylthiazole-2-il)-2,5-diphenyltetrazolium bromide). The test with MTT is a simple method for determining the metabolic activation of the cells and it is based upon the action of the mitochondrial enzyme succinate dehydrogenase reducing the tetrazolium salts in crystals of a bluish product called formazan. Therefore the reaction can take place only in the metabolically active cells and the value of optical density (O.D.), obtained by means of spectrophotometric reading, can be correlated to the quantity of existing vital cells.
# Upon considering the application of the association CMG-resveratrol for the formulation of pharmaceutical products, dietary supplies, medical devices, cosmetic products, functional pieces of food, veterinary products, with consequent interaction with the biological systems of men and animals in general, even the possible cytotoxycity was evaluated. In particular tests of cellular metabolic activity in presence of resveratrol and CMG on VERO cellular line were performed. […]
# 6 hours after exposition to these substances MTT colouring agent was added, then the formazan produced by the metabolically active cells was extracted with isopropanol and the optical density measured at 570 nm by subtracting the reference value at 690 nm. […]
# [2] = Solubility of resveratrol in buffered aqueous solution in presence of CMG, determined by HPLC; assay type: physicochemical
# Method: as §1
# The solutions of CMG and resveratrol have always been prepared in a buffered, isotonic, physiological pH-containing aqueous solution, constituted by: • dipotassium phosphate 0.74% • sodium chloride 0.42% • potassium phosphate 0.175%
# All solutions were cold-prepared and without using any organic solvent.
# In order to evaluate the solubility, with consequent effect on the bioavailability thereof, formulations were prepared containing resveratrol in association with CMG at increasing concentrations (from 0.5 mg/ml to 10 mg/ml) in a ratio 1:1, in an aqueous solution of the above-mentioned composition. […]
# [3] = assay type: physicochemical
# Method: The solubility of triacetyl-resveratrol and of trimethylether of resveratrol in an aqueous solution (of the same composition described in example 1) in presence of CMG was evaluated. In particular, the solubility in aqueous phase of triacetyl-resveratrol and of trimethyl ether of resveratrol was evaluated at first and this value was considered unitary.
stability of resveratrol in buffer solution ([1]; after 2 months),stability of resveratrol in buffer solution ([1]; after 7 months),reduction in the cellular metabolic activity (VERO cellular line) [%],concentration of CMG from which highly solubilizing action on resveratrol is confirmed [2] [µg/mL],solubilization higher than what reported in literature [2],SMILES,"increase of solubility in presence of CMG, relative to solubility of the pure compound considered unitary [3]"
strong degradation,no more detected,20,≥ 250,at least 100 times,"Oc1ccc(C=Cc2cc(O)cc(O)c2)cc1 [resveratrol, 3,4',5-trihydroxystilbene]",
,,,,,"CC(=O)Oc1ccc(/C=C/c2cc(OC(C)=O)cc(OC(C)=O)c2)cc1 [triacetylresveratrol, triacetyl-resveratrol]",more than one and a half time
,,,,,COc1ccc(/C=C/c2cc(OC)cc(OC)c2)cc1 [trimethylether of resveratrol],three times
